Values of other authors in patent EP3959200B1, “NEW TRIAZOLE AND TRIAZOLOTHIADIAZINE DERIVATIVES EXERTING CYTOTOXIC AND APOPTOTIC EFFECTS ON A549 CELLS THROUGH AKT INHIBITION” (Anadolu Universitesi, priority 2020, dated 2022).
Read-outs that look alike come from different tables or passages of the source.

Key:
[1] = test system: human cervical carcinoma (HeLa); conditions: cited from earlier work
colon carcinoma (HCT116) = conditions: HCT116, MTT; read-out: LC50 (the source's name); cited from earlier work
[2] = test system: breast adenocarcinoma (MCF-7); conditions: MCF-7, MTT; read-out: LC50 (the source's name); cited from earlier work
[3] = test system: human epithelial cervical carcinoma (HeLa) cells; conditions: MTT; cited from earlier work
human lung cancer (A549) = conditions: cited from earlier work
[4] = test system: human HCC (HepG2) cell line; conditions: cited from earlier work
[5] = test system: human lung adenocarcinoma (A549); conditions: cited from earlier work
[6] = test system: breast adenocarcinoma (MCF-7); conditions: cited from earlier work
[7] = test system: ovarian carcinoma (SKOV3); conditions: cited from earlier work
tubulin = tubulin polymerization; cited from earlier work
[8] = target: alkaline phosphatase (ALP) enzyme; conditions: cited from earlier work
PC-3 cells = conditions: cited from earlier work
Ehrlich acid tumor (EAC) = conditions: 25 mg/kg, body weight; cited from earlier work
A549 = conditions: cited from earlier work
HCT116 cell line = conditions: cited from earlier work
HeLa cell line = conditions: cited from earlier work
PC-3 cell line = conditions: cited from earlier work
[9] = test system: human hepatocellular carcinoma (HCC) cell line (HepG2); conditions: HepG2, MTT; cited from earlier work
[10] = test system: 60 cell lines derived from leukemia, non-small cell lung cancer, skin, ovarian, prostate and breast cancers; conditions: all cancer types tested; cited from earlier work
[11] = test system: kidney cancer (OU-31) cell line; design: concentration or dose not given beside the values; conditions: cited from earlier work
[12] = test system: leukemia (MOLT-4) cell line; conditions: cited from earlier work
[13] = test system: leukemia (CCRF-CEM, RPMI-8226 and SR), non-small cell lung cancer (HOP-92), melanoma (UACC-62) and kidney cancer (UO-31) cells; conditions: across CCRF-CEM, RPMI-8226, SR, HOP-92, UACC-62, UO-31; cited from earlier work
[14] = test system: human breast cancer (MCF-7); conditions: cited from earlier work
K562 cells = conditions: cited from earlier work
HCC rats = conditions: cited from earlier work
[15] = test system: 60 cell lines derived from lung, colon, skin, kidney, ovarian, central nervous system and blood cancers; conditions: all cells tested; cited from earlier work
[16] = test system: human gastric cancer (NUGC), human liver cancer (HA22T and HepG2), nasopharyngeal cancer (HONE1), human breast cancer (MCF); conditions: all other cancer cells tested except DLD1 cells; cited from earlier work
[17] = test system: normal fibroblast (WI38) cells; conditions: cited from earlier work
[18] = test system: human colon epithelial cells (HT-29); conditions: cited from earlier work
Huh7 cell line = conditions: cited from earlier work
lung cancer (H157) cells = conditions: cited from earlier work
[19] = test system: kidney fibroblast (BHK-21) cells; conditions: cited from earlier work
[20] = test system: lung cancer (H-157) cell line; conditions: cited from earlier work
[21] = test system: human breast cancer (MCF-7); conditions: cited from earlier work; remark: listed apart in the source

COc1cccc2c1C(=O)c1c(O)c3c(c(O)c1C2=O)C[C@@](O)(C(=O)CO)C[C@@H]3O[C@H]1C[C@H](N)[C@H](O)[C@H](C)O1 [doxorubicin]
IC50 [1]: 8.72 µM | CC50 (colon carcinoma (HCT116)): 37.7 µM | CC50 [2]: 26.1 µM | EC50 [3]: 2.5 µM | IC50 (human lung cancer (A549)): 4.52 µM | IC50 [4]: 36.3 µM

COc1cc(C2=Nn3c(nnc3-c3ccccc3)SC2)cc(OC)c1OC [3-phenyl-6-(3,4,5-trimethoxyphenyl)-7H-[1,2,4]triazolo[3,4-b][1,3,4]thiadiazine]
IC50 [5]: 3.71 ± 0.13 µM | IC50 [6]: 0.7 ± 0.04 µM | IC50 [7]: 4.63 ± 0.09 µM | IC50 (tubulin): 1.61 µM

O=c1oc2ccccc2cc1C1=Nn2c(nnc2-c2cc3ccccc3oc2=O)SC1 [3,3'-(7/7-[1,2,4]Triazolo[3,4-b][1,3,4]thiadiazine-3,6-diyl)-bis(2H-chromen-2-one)]
IC50 [8]: 1.15 ± 1 µM

Cc1ccc(C(C)C)c(OCc2nnc(SCC(=O)Nc3ccc(S(N)(=O)=O)cc3)n2Cc2ccccc2)c1 [2-{ [3-[[5-Methyl-2-(propane-2-yl)phenoxy]methyl)-4-benzyl-4,5-dihydro-1H-1,2,4-triazole-5-yl]sulfanyl}-N-(4-sulfamoilphenyl)acetamide]
IC50 (PC-3 cells): 5.96 µM

Nn1c(S)nnc1-c1ccccc1Cl [4-amino-5-mercapto-3-(2-chlorophenyl)-1,2,4-triazole]
tumor cell inhibition (TCI) (Ehrlich acid tumor (EAC)): 63.59%

Cc1ccc(C(C)C)c(OCC2=NNC(SCC(=O)Nc3ccc(Cl)cc3)N2Cc2ccccc2)c1 (centres unmarked) [2-{[3-[[5-methyl-2-(propane-2-yl)phenoxy]methyl]-4-benzyl-4,5-dihydro-1H-1,2,4-triazole-5-yl]sulfanyl}-N-(4-chlorophenyl)acetamide]
IC50 (A549): 7.9 µM

COc1cc(-c2nnc(SCC(=O)c3ccc(C)cc3)n2N)cc(OC)c1OC [2-(4-amino-5-(3,4,5-trimethoxyphenyl)-4H-1,2,4-triazole-3-ylthio)-1-(p-tolyl)ethanone]
IC50 (HCT116 cell line): 0.37 µM | IC50 (HeLa cell line): 2.94 µM | IC50 (PC-3 cell line): 31.3 µM

Cc1ccc(COc2nn(CN3CCOCC3)c(=S)n2N=Cc2c[nH]nc2-c2ccc(F)cc2)cc1 [4-((3-(4-fluorophenyl)-1H-pyrazole-4-methylene)amino)-2-(morpholinomethyl)-5-(4-methylbenzyloxy)-2,4-dihydro-1,2,4-triazole-3-thione]
IC50 [9]: 0.034 µM

Fc1cc(-c2nnc3n2N=C(c2ccc(Cl)cc2)CS3)c(Cl)cc1Cl [3-(2,4-Dichloro-5-fluorophenyl)-6-(4-chlorophenyl)-1,2,4-triazolo[3,4-b]-1,3,4-thiadiazine]
GI50 [10]: 1.06 to 25.4 µM

S=c1[nH]nc(OCc2ccccc2)n1N=Cc1c[nH]nc1-c1ccc(Cl)cc1 [4-((3-(4-chlorophenyl)-1H-pyrazole-4-methylene)amino)-5-(benzyloxy)-2,4-dihydro-1,2,4-triazole-3-thione]
IC50 [9]: 0.018 µM

O=C(CSc1nnc2n1N=C(c1ccc(Cl)cc1)CS2)c1ccc(F)cc1 [2-((6-(4-Chlorophenyl)-7H-[1,2,4]triazolo[3,4-b][1,3,4]thiadiazine-3-yl)thio-1-(4-fluorophenyl)ethanone]
growth [11]: 48.14% | growth [12]: 49.82%

OC(c1ccccc1)c1nnc(SCc2ccccc2)n1Cc1ccccc1 (centres unmarked) [4-Benzyl-3-(benzylthio)-5-[hydroxy(phenyl)methyl]-4H-1,2,4-triazole]
antiproliferative activity [13]: 25-58%

CC(C)(c1ccc(Cl)cc1)c1nnc2n1N=C(c1ccc(OC(F)(F)F)cc1)CS2 [3-(2-(4-chlorophenyl)propane-2-yl)-6-(4-(trifluoromethoxy)phenyl)-7H-[1,2,4]triazolo[3,4-b] [1,3,4]thiadiazine]
IC50 (human lung cancer (A549)): 18.2 µM | IC50 [14]: 10.5 µM

CC(=O)Nc1ccc(OCC2=NNC(SCC(=O)Nc3ccc(Br)cc3)N2Cc2ccccc2)cc1 (centres unmarked) [2-[(3-{[4-(acetylamino)phenoxy]methyl}-4-benzyl-4,5-dihydro-1H-1,2,4-triazole-5-yl)sulfanyl]-N-(4-bromophenyl)acetamide]
IC50 (K562 cells): 7.71 µM

O=C(CNNc1nnc2n1NC=C(c1ccccc1)S2)c1ccccc1 [1-phenyl-2-(2-(7-phenyl-5H-[1,2,4]triazolo[3,4-b][1,3,4]thiadiazine-3-yl)hydrazinyl)ethanone]
IC50 [4]: 19.6 µM | inhibition of hepatic tyrosine kinase (HTK) expression (HCC rats): 45% | reduction of vascular endothelial growth factor (VEGF) level (HCC rats): 30% | improvement of liver level of glutathione (GSH) (HCC rats; compared to the HCC group): 99% | improvement of liver level of lipid peroxides (HCC rats; compared to the HCC group): 62%

Fc1cc(C2=Nn3c(COc4ccccc4Cl)nnc3SC2=Cc2ccc(Cl)cc2)c(Cl)cc1Cl [7-(4-chlorobenzylidene)-6-(2,4-dichloro-5-fluorophenyl)-3-((2-chlorophenoxy)methyl)-1,2,4-triazolo[3,4-b]-1,3,4-thiadiazine]
GI50 [15]: < 10 µM

COc1cc(-c2nnc3n2N=C(c2ccc(Br)cc2)CS3)cc(OC)c1OC [6-(4-bromophenyl)-3-(3,4,5-trimethoxyphenyl)-7H-[1,2,4]triazolo[3,4-b][1,3,4]thiadiazine]
IC50 [5]: 3.15 ± 0.01 µM | IC50 [6]: 3.34 ± 0.02 µM | IC50 [7]: 0.3 ± 0.65 µM | IC50 (tubulin): 1.03 µM

c1ccc(C2=Nn3c(nnc3-c3ccncc3)SC2)cc1 [6-phenyl-3-(pyridine-4-yl)-7H-[1,2,4]triazolo[3,4-b][1,3,4]thiadiazine]
IC50 [16]: < 0.8 µM | IC50 [17]: > 10 µM

CS(=O)(=O)c1ccc(Cc2nnc3n2N=C(c2ccc(-c4ccccc4)cc2)CS3)cc1 [6-(biphenyl-4-yl)-3-(4-(methylsulfonyl)benzyl)-7H-[1,2,4]triazolo[3,4-b][1,3,4]thiadiazine]
IC50 [18]: 12.5 µM

CCc1cccc2c3c([nH]c12)C(CC)(Cc1n[nH]c(=S)n1C)OCC3 (centres unmarked) [5-[(1,8-Diethyl-1,3,4,9-tetrahydropyrano[3,4-b]indole-1-yl)methyl]-4-methyl-2,4-dihydro-3H-1,2,4-triazole-3-thione]
IC50 (Huh7 cell line): 4.29 µM

CC[C@]1(O)C[C@H]2CN(CCc3c([nH]c4ccccc34)[C@@](C(=O)OC)(c3cc4c(cc3OC)N(C=O)[C@H]3[C@@](O)(C(=O)OC)[C@H](OC(C)=O)[C@]5(CC)C=CCN6CC[C@]43[C@@H]65)C2)C1 [vincristine]
IC50 (lung cancer (H157) cells): 1.03 ± 0.04 µM | inhibition [19]: 74.5% | IC50 [20]: 1.03 ± 0.04 µM

CS(=O)(=O)c1ccc(Cc2nnc3n2N=C(c2ccccc2)CS3)cc1 [3-(4-(methylsulfonyl)benzyl)-6-phenyl-7H-[1,2,4]triazolo[3,4-b][1,3,4]thiadiazine]
IC50 [18]: 25 µM

Clc1ccc(C2=Nn3c(nnc3-c3cccnc3)SC2)cc1Cl [6-(3,4-dichlorophenyl)-3-(pyridine-3-yl)-7H-[1,2,4]triazolo[3,4-b][1,3,4]thiadiazine]
IC50 (lung cancer (H157) cells): 0.96 ± 0.43 µM

O=c1[nH]cc(F)c(=O)[nH]1 [5-fluorouracil]
IC50 (HCT116 cell line): 68.7 µM | IC50 (HeLa cell line): 57.2 µM | IC50 (PC-3 cell line): 57 µM

COc1ccc(-n2nc(-c3nnc(SCCCO)n3-c3ccccc3)cc2-c2ccccc2)cc1 [3-((5-(1-(4-Methoxyphenyl)-5-phenyl-1H-pyrazole-3-yl)-4-phenyl-4H-1,2,4-triazole-3-yl)thio)propane-1-ol]
IC50 [21]: 2.72 µM | IC50 [1]: 2.98 µM
